These results are taken from patent US20250289789A1, “REVERSIBLE LYSINE COVALENT MODIFIERS OF CDK2 AND USES THEREOF” (Terremoto Biosciences, Inc., priority 2023, published 2025).

What all share (format): cell-based
For test [1], the target named is T1, CDK1-NanoLuc fusion with CCNB1 in 293T or 293 cells (Homo sapiens, UniProt P06493).
T1 construct: host or cells: 293T (ATCC CRL-3216) or 293 (ATCC CRL-1573)
Briefly: NanoBRET Target Engagement (TE) Intracellular Kinase Assay, CDK1/CCNB1. The note with it: NanoBRET TE intracellular kinase assay, 2-hour incubation, read-out: NanoBRET-CDK1/B1 IC50. As for the experimental part:
Inhibitory effects of compounds were measured in NanoBRET TE Intracellular Kinase Assay. 293T (ATCC; CRL-3216) or 293 (ATCC; CRL-1573) cell lines were maintained in 90% DMEM and 10% fetal bovine serum at 37° C., 5% CO2, and 95% relative humidity. Cells were trypsinized and resuspended in assay media (99% Opti-MEM I Reduced Serum Medium, no phenol red, and 1% fetal bovine serum). Cells were co-transfected with 1 μg/mL of CDK-NanoLuc Fusion Vector (Promega; NV2701 for CDK1, NV2781 for CDK2, NV2811 for CDK4, NV2841 for CDK6) and 1 μg/mL of the corresponding Cyclin Expression Vector (Promega; NV2601 for CCNB1, NV2641 for CCNE1, NV2621 for CCND1, NV2631 for CCND3) using FuGENE HD Transfection Reagent (Promega; E2311). 40 uL/well of cells with transfection mixture were seeded in 384-well plates at 1.25×10^5 to 2×10^5 cells/mL and incubated for 24 hours at 37° C., 5% CO2, and 95% relative humidity. On the next day, 100 nL of 100 μM NanoBRET Tracer K-10 (Promega; N2640) and 40 nL of 1000× test compounds prepared in DMSO were added to the cells in each well of 384-well plates for a 2-hour incubation at 37° C., 5% CO2, and 95% relative humidity. 20 uL/well of 3× Intracellular TE Nano-Glo Substrate/Inhibitor (Promega; N2162) were added to 384-well plates and incubated for 3 minutes at room temperature. NanoBRET signals (donor emission wavelength at 450 nm, acceptor emission wavelength at 610 nm) were measured using Envision plate reader (PerkinElmer). NanoBRET ratio was calculated by: BRET Ratio=raw signal for acceptor/raw signal for donor. Dose response curve normalized to DMSO control was plotted using four-parameter logistic model for IC50 calculation.

In test [2] the test system is Phospho-Rb Ser807/811 in OVCAR3 cells. Briefly: OVCAR3 Phospho-Rb Ser807/811 HTRF assay. The note with it: Homo sapiens, read-out: pRb-OVCAR3 IC50. Here is the method: Cells were trypsinized and resuspended in 1 mM hydroxyurea (Sigma; H8627), 90% RPMI and 10% fetal bovine serum. […] Dose response curve normalized to DMSO control was plotted using four-parameter logistic model for IC50 calculation.
For orientation: Time-resolved FRET reads energy transfer from a long-lived donor to a nearby acceptor.

In test [3] the target is T2, CDK4-NanoLuc fusion with CCND1 in 293T or 293 cells (Homo sapiens, UniProt P11802).
T2 construct: host or cells: 293T (ATCC CRL-3216) or 293 (ATCC CRL-1573)
Briefly: NanoBRET Target Engagement (TE) Intracellular Kinase Assay, CDK4/CCND1. The note with it: NanoBRET TE intracellular kinase assay, 2-hour incubation, read-out: NanoBRET-CDK4/D1 IC50. In general terms: Bioluminescence resonance energy transfer reports proximity on the nanometre scale.

In test [4] the target is T3, CDK2-NanoLuc fusion with CCNE1 in 293T or 293 cells (Homo sapiens, UniProt P24941).
T3 construct: host or cells: 293T (ATCC CRL-3216) or 293 (ATCC CRL-1573)
Briefly: NanoBRET Target Engagement (TE) Intracellular Kinase Assay, CDK2/CCNE1. The note with it: NanoBRET TE intracellular kinase assay, 2-hour incubation, read-out: NanoBRET-CDK2/E1 IC50.

Where [5] appears, read: OVCAR-3, 1 h, OVCAR3 cells, Phospho-Rb Ser807/811 HTRF, 1 hour incubation.

Structures are written as SMILES. Read-outs that look alike come from different tables or passages of the source.

T1 sequence (P06493 whole entry, the tested form may be a part): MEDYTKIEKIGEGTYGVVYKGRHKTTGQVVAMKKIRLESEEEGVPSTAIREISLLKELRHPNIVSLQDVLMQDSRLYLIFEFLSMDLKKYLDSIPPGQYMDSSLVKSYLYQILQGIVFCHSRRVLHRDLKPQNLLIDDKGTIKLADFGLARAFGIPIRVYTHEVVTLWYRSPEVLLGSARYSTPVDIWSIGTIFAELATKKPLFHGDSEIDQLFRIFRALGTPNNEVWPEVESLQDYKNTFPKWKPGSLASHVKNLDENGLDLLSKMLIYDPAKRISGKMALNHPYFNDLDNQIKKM
T1 sequence (P14635 whole entry partner, the tested form may be a part): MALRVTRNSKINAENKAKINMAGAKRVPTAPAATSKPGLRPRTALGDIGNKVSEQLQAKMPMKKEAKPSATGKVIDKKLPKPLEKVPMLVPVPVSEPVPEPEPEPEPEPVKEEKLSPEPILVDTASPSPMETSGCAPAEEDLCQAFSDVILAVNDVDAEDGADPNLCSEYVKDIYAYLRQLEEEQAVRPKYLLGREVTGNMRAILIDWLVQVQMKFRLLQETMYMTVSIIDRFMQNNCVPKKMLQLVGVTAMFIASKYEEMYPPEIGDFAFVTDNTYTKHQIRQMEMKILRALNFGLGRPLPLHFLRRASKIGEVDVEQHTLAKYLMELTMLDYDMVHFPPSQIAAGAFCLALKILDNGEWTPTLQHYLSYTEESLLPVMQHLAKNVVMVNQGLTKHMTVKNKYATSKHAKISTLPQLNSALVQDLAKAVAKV
T2 sequence (P11802 whole entry, the tested form may be a part): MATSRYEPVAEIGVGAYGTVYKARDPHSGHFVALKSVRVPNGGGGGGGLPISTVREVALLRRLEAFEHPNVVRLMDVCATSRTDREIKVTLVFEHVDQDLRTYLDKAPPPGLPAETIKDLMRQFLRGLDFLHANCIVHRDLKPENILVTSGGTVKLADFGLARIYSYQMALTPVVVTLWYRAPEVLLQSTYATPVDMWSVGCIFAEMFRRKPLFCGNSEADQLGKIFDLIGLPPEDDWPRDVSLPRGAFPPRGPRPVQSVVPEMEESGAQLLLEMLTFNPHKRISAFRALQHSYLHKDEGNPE
T2 sequence (P24385 whole entry partner, the tested form may be a part): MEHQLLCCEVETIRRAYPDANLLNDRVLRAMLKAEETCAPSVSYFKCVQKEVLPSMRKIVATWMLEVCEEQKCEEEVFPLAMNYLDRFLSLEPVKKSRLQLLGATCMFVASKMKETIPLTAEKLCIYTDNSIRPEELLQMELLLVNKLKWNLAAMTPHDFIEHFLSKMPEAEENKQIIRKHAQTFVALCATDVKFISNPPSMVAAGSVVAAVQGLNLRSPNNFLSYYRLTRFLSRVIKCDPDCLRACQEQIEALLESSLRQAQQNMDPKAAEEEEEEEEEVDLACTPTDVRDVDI

On to `CC(C)NC(=O)O[C@@H]1CC[C@H](c2cc(NC(=O)CCc3cccc(O)c3C=O)n[nH]2)C1` [Compound 7, (1R,3S)-3-(3-(3-(2-formyl-3-hydroxyphenyl)propanamido)-1H-pyrazol-5-yl)cyclopentyl isopropylcarbamate trifuoroacetic acid], for which the IC50 in test [1] is 275 nM; in test [2] (OVCAR-3, 1 h), 1500 nM; in test [3], 1850 nM; in test [4], 11.4 nM.

`CC(C)NC(=O)O[C@@H]1CC[C@H](c2cc(NC(=O)c3cnn(-c4cccc(O)c4C=O)c3)n[nH]2)C1` [Compound 8, (1R,3S)-3-{5-[1-(2-formyl-3-hydroxyphenyl)pyrazole-4-amido]-2H-pyrazol-3-yl}cyclopentyl N-isopropylcarbamate; trifluoroacetic acid]: the IC50 in test [1] was 73.5 nM; in test [2] (OVCAR-3, OVCAR3 cells, Phospho-Rb Ser807/811 HTRF, 1 hour incubation), 880 nM; in test [3], 5460 nM; in test [4], 24.9 nM.

As to `Cc1cc(C(=O)Nc2cc([C@H]3CC[C@@H](OC(=O)NC(C)C)C3)[nH]n2)cc(C=O)c1O` [Compound 15, (1R,3S)-3-(3-(3-formyl-4-hydroxy-5-methylbenzamido)-1H-pyrazol-5-yl)cyclopentyl isopropylcarbamate trifluoroacetic acid], the IC50 came out at 25.3 nM in test [1], 112 nM in test [2] (setting [5]), 1820 nM in test [3] and 2.65 nM in test [4].

On to `CC(C)NC(=O)O[C@@H]1CC[C@H](c2cc(NC(=O)c3cc(Oc4cccc(O)c4C=O)nn3C)n[nH]2)C1` [Compound 19, (1R,3S)-3-{5-[5-(2-formyl-3-hydroxyphenoxy)-2-methylpyrazole-3-amido]-2H-pyrazol-3-yl}cyclopentyl N-isopropylcarbamate], for which the IC50 in test [1] is 78 nM; in test [2] (setting [5]) it was 941 nM; in test [3], 2420 nM; in test [4], 16.4 nM.

On to `CC(C)NC(=O)O[C@@H]1CC[C@H](c2cc(NC(=O)c3cc(C(=O)Nc4cccc(O)c4C=O)nn3C)n[nH]2)C1` [Compound 20, (1R,3S)-3-(5-{5-[(2-formyl-3-hydroxyphenyl)carbamoyl]-2-methylpyrazole-3-amido}-2H-pyrazol-3-yl)cyclopentyl N-isopropylcarbamate; trifluoroacetic acid], for which the IC50 came to 147 nM in test [1], 915 nM in test [2] (setting [5]), 1210 nM in test [3] and 10.5 nM in test [4].

Regarding `CC(C)NC(=O)O[C@@H]1CC[C@H](c2cc(NC(=O)c3cc(C(=O)Nc4ccccc4C=O)nn3C)n[nH]2)C1` [Compound 21, (1R,3S)-3-(5-{5-[(2-formylphenyl)carbamoyl]-2-methylpyrazole-3-amido}-2H-pyrazol-3-yl)cyclopentyl N-isopropylcarbamate; trifluoroacetic acid], the IC50 in test [1] was found to be 290 nM; in test [2] (setting [5]) it was 2120 nM; in test [3], 3900 nM; in test [4], 5.53 nM.

Take `CC(C)NC(=O)O[C@@H]1CC[C@H](c2cc(Nc3cc(COc4cccc(O)c4C=O)ccn3)n[nH]2)C1` [Compound 24, (1R,3S)-3-(3-((4-((2-formyl-3-hydroxyphenoxy)methyl)pyridin-2-yl)amino)-1H-pyrazol-5-yl)cyclopentyl isopropylcarbamate]: the IC50 was determined as 516 nM in test [1], 3760 nM in test [2] (setting [5]), 4880 nM in test [3] and 18.7 nM in test [4].

In the case of `CC(C)NC(=O)O[C@@H]1CC[C@H](c2cc(Nc3cc(OCc4cccc(O)c4C=O)ccn3)n[nH]2)C1` [Compound 25, (1R,3S)-3-[5-({4-[(2-formyl-3-hydroxyphenyl)methoxy]pyridine-2-yl}amino)-2H-pyrazol-3-yl]cyclopentyl N-isopropylcarbamate], the IC50 in test [1] is 299 nM; in test [2] (setting [5]) it was 1330 nM; in test [3], 1210 nM; in test [4] it was 9.94 nM.

On to `CC(C)NC(=O)O[C@@H]1CC[C@H](c2cc(NC(=O)c3cc(COc4cccc(O)c4C=O)nn3C)n[nH]2)C1` [Compound 27, (1R,3S)-3-{5-[5-(2-formyl-3-hydroxyphenoxymethyl)-2-methylpyrazole-3-amido]-2H-pyrazol-3-yl}cyclopentyl N-isopropylcarbamate], for which the IC50 in test [1] is 17.7 nM; in test [2] (setting [5]), 95.2 nM; in test [3], 112 nM; in test [4], 5.24 nM.

For `CC(C)NC(=O)O[C@@H]1CC[C@H](c2cc(NC(=O)c3cc(OCc4cccc(O)c4C=O)nn3C)n[nH]2)C1` [Compound 28, (1R,3S)-3-(3-(3-((2-formyl-3-hydroxybenzyl)oxy)-1-methyl-1H-pyrazole-5-carboxamido)-1H-pyrazol-5-yl)cyclopentyl isopropylcarbamate], the IC50 in test [1] turned out to be 151 nM; in test [2] (setting [5]), 1820 nM; in test [3], 1190 nM; in test [4], 10.4 nM.

With `CC(C)NC(=O)O[C@@H]1CC[C@H](c2cc(NC(=O)c3cc(C#Cc4cccc(O)c4C=O)nn3C)n[nH]2)C1` [Compound 29, (1R,3S)-3-(5-{5-[2-(2-formyl-3-hydroxyphenyl)ethynyl]-2-methylpyrazole-3-amido}-2H-pyrazol-3-yl)cyclopentyl N-isopropylcarbamate], the IC50 amounted to 494 nM in test [1], 2150 nM in test [2] (setting [5]), 1550 nM in test [3] and 18.6 nM in test [4].

Take `CC(C)NC(=O)O[C@@H]1CC[C@H](c2cc(NC(=O)c3cc(CCc4cccc(O)c4C=O)nn3C)n[nH]2)C1` [Compound 30, (1R,3S)-3-(5-{5-[2-(2-formyl-3-hydroxyphenyl)ethyl]-2-methylpyrazole-3-amido}-2H-pyrazol-3-yl)cyclopentyl N-isopropylcarbamate]: the IC50 is 491 nM in test [1], 2740 nM in test [2] (setting [5]), 3160 nM in test [3] and 17.8 nM in test [4].

For the molecule `CC(C)NC(=O)O[C@@H]1CC[C@H](c2cc(NC(=O)c3cc(-c4ccc(O)c(C=O)c4)nn3C)n[nH]2)C1` [Compound 31, (1R,3S)-3-{5-[5-(3-formyl-4-hydroxyphenyl)-2-methylpyrazole-3-amido]-2H-pyrazol-3-yl}cyclopentyl N-isopropylcarbamate], the IC50 turned out to be 20.4 nM in test [1], 214 nM in test [2] (setting [5]), 3070 nM in test [3] and 5.46 nM in test [4].

In the case of `CC(C)NC(=O)O[C@@H]1CC[C@H](c2cc(NC(=O)CCOc3cccc(O)c3C=O)n[nH]2)C1` [Compound 34, (1R,3S)-3-{5-[3-(2-formyl-3-hydroxyphenoxy)propanamido]-2H-pyrazol-3-yl}cyclopentyl N-isopropylcarbamate; trifluoroacetic acid], the IC50 in test [1] worked out at 98.9 nM; in test [2] (setting [5]), 552 nM; in test [3] it was 196 nM; in test [4], 5.34 nM.

For `CC(C)NC(=O)O[C@@H]1CC[C@H](c2cc(NC(=O)OCCc3cccc(O)c3C=O)n[nH]2)C1` [Compound 35, 2-(2-formyl-3-hydroxyphenyl)ethyl N-{5-[(1S,3R)-3-[(isopropylcarbamoyl)oxy]cyclopentyl]-1H-pyrazol-3-yl}carbamate; trifluoroacetic acid], the IC50 in test [1] is 537 nM; in test [2] (setting [5]) it was 4130 nM; in test [3], 3960 nM; in test [4], 23.9 nM.

Regarding `CC(C)NC(=O)O[C@@H]1CC[C@H](c2cc(NC(=O)COCc3cccc(O)c3C=O)n[nH]2)C1` [Compound 36, (1R,3S)-3-(5-{2-[(2-formyl-3-hydroxyphenyl)methoxy]acetamido}-2H-pyrazol-3-yl)cyclopentyl N-isopropylcarbamate; trifluoroacetic acid], the IC50 in test [1] stood at 82.2 nM; in test [2] (setting [5]), 702 nM; in test [3], 1910 nM; in test [4], 8.17 nM.
